Values after ≈ are worked out from the molar mass of the structure shown. Where two headings read alike, the source gives them in different places.
Columns and labels:
[1] = mouse, in vivo
OATP1B1 = test system: OATP1B1; design: method as in Nakai et al., 2001; details: human, experimental; ref Nakai et al., 2001; cited from earlier work
[2] = cited from earlier work
[3] = ref Thiel et al., 2015, cited from earlier work
[4] = humans; ref Everett et al., 1991; cited from earlier work
[5] = rat; ref Fukuda et al., 2008; cited from earlier work
[6] = rats; ref Fukuda et al., 2008; cited from earlier work

CC[C@H](C)C(=O)O[C@H]1C[C@H](O)C=C2C=C[C@H](C)[C@H](CC[C@@H](O)C[C@@H](O)CC(=O)O)[C@H]21 [Pravastatin, pravastatin]
Mean fraction of dose excreted to urine [1]: Less than 1%
Fraction of dose in urine (24 h), cirrhotic vs control mice ([1]; iv): increased significantly
Km (OATP1B1): 11.5 µM
Solubility ([2]; DrugBank, ref Wishart et al., 2017): 10000 µg/mL (≈ 23.6 mM)
Lipophilicity ([2]; MSDS, ref Wishart et al., 2017): 0.59
Lipophilicity ([2]; experimental pH=5, ref Serajuddin et al., 1991): 1.6
Lipophilicity ([2]; experimental pH=7, ref Serajuddin et al., 1991): -0.23
Lipophilicity ([2]; human, optimized, ref Lippert et al., 2012): 0.82
pKa (Acid) ([2]; ref Wishart et al., 2017, Puttegowda et al., 2016): 4.2
Vmax ([3]; Oatp1b2, optimized for mice with measured human Km): 2.5 µmol/L/min
Fraction unbound ([3]; mouse, optimized (talinolol: possibly optimized)): 0.73
Dose recovered unchanged from urine [4]: about 41%
Fraction unbound [5]: 0.672
Dose found in bile [6]: about 60%

Source: paper PMC10694292, “Increased sinusoidal export of drug glucuronides is a compensative mechanism in liver cirrhosis of mice” (Frontiers in Pharmacology, 2023)
